Measurements taken from US11911408B2, “Synergistic formulations of adenosine receptor modulating agents and anticholinergics” (UNIVERSITY OF ALASKA FAIRBANKS, priority 2021, dated 2024).
“Also recorded” adds a separate entry of the source.

Assays:
Sprague-Dawley rats [1] = assay: Minimizing hemodynamic effects: antagonist pretreatments before IP CHA/CPA, rats on 4° C. cooled surface
Protocol: Fifteen different treatment combinations were administered to five male Sprague-Dawley rats with an average age of 314±88 days and weight of 453±44 g (mean±SD) in a modified cross over design as shown in Table 1). […] A washout period of at least one week was allowed between treatments. One hour of baseline data (body temperature, blood pressure, heart rate, and metabolism) was acquired before treatment. Rats received either a single IP injection of CHA or were pre-treated with antagonists 15 or 30 minutes prior to CHA drugs and were then placed on a 4° C. cooled surface (previously described Laughlin et al; herein incorporated by reference). Surface temperature was manually adjusted to prevent body temperature from falling below 32° C.
The pressure transducer was cannulated into the descending abdominal aorta.
Rats were placed inside a 12″×12″ clear acrylic box without bedding sitting on top of a custom built, aluminum hydronic surface. The aluminum surface was part of a cooling and heating system controlled by a thermostat in which circulating water was heated or cooled via thermoelectric Peltier plates and pumped through the aluminum cage floor. […] Food and water was provided ad libitum. The vascular access button was attached to a tether and swivel (Instech, VAHD115T, 375/D/22, Plymouth Meeting, Pa.) connected to a counter balance arm to provide freedom of movement.

Sprague-Dawley rats [2] = assay: 8-SPT dose determination (IV): atropine and 8-SPT bolus before CHA loading dose and infusion, 4° C. cooled surface; assay type: in vivo, rat; conditions: Atropine 1 mg/kg and SPT 10, 15 or 25 mg/kg (all doses) 15 min before CHA 1 mg/kg bolus, 0.25 mg/(kg·h) IV; n=5
Protocol: To define the dose-response relationship between 8-SPT combined with a constant concentration of atropine and CHA, three drug treatment combinations with varying doses of 8-SPT were tested. […] One hour of baseline data (body temperature, blood pressure, heart rate, and metabolism) were acquired before treatment. Rats received IV bolus of Atropine and 8-SPT 15 minutes before CHA. An IV loading dose of CHA was administered followed by a two hour continuous infusion of CHA. Rats were placed on a 4° C. cooled surface (previously described Laughlin et al). Surface temperature was manually adjusted to prevent body temperature from falling below 32° C.
Rats were placed inside a 12″×12″ clear acrylic box without bedding sitting on top of a custom built, aluminum hydronic surface. The aluminum surface was part of a cooling and heating system controlled by a thermostat in which circulating water was heated or cooled via thermoelectric Peltier plates and pumped through the aluminum cage floor. […] Food and water was provided ad libitum.

[3] = 8-SPT 25 mg/kg 15 min before CHA (S15C), n=4-5
[4] = 8-SPT 25 mg/kg administered 30 min after CHA 1 mg/kg, n=4-5

For `CN1C2CCC1CC(OC(=O)C(CO)c1ccccc1)C2` (centres unmarked) [Atropine, atropine], the “prevention of CHA induced hypotension” value (Sprague-Dawley rats [1]; rat, in vivo) was “not sufficient; also recorded: does not prevent”.

With `Cn1c(=O)c2[nH]c(-c3ccc(S(=O)(=O)O)cc3)nc2n(C)c1=O` [8-SPT, 8-(p-sulfophenyl) theophylline] the CHA induced hypotension (Sprague-Dawley rats [2]) was “effectively blocked”, the “effect on heart rate compared to CHA 1 mg/kg alone” value (Sprague-Dawley rats [1]; [3]) was “minimal effect” and the “effect on mean arterial pressure compared to CHA 1 mg/kg alone” value (Sprague-Dawley rats [1]; [3]) was “minimal effect”. The core body temperature (Sprague-Dawley rats [1]; [4]) was “increased significantly”, the heart rate (Sprague-Dawley rats [1]; [4]) was “increased significantly” and the mean arterial pressure (Sprague-Dawley rats [1]; [4]) was “increased significantly”. For the same compound, the oxygen consumption (Sprague-Dawley rats [1]; [4]) was “increased significantly”, the “prevention of CHA induced hypotension” value (Sprague-Dawley rats [1]; 8-SPT 25 mg/kg alone 15 min before CHA 1 mg/kg (S15C), n=3-5) was “not sufficient” and the “prevention of the initial drop in blood pressure or heart rate (hypotension) immediately following CHA administration” value (Sprague-Dawley rats [1]; 8-SPT alone (pretreatment), dose not stated) was “cannot prevent; also recorded: not sufficient”. The “increase of blood pressure” value (Sprague-Dawley rats [1]; 8-SPT alone, after metabolic suppression is stabilized) was “sufficient”.

In the case of `OC[C@H]1O[C@@H](n2cnc3c(NC4CCCCC4)ncnc32)[C@H](O)[C@@H]1O` [CHA, N6-Cyclohexyladenosine], the “blood pressure effect of the agonist alone” value (Sprague-Dawley rats [1]; 1 mg/kg at time point zero, n=4-5) is reported as “hypotension”.

`CC(C)NCC(O)COc1cccc2ccccc12` (centres unmarked) [propranolol] was tested, and the prevention of hypotension (Sprague-Dawley rats [1]; propranolol 4 mg/kg alone 15 min before CHA 1 mg/kg (P15C), n=3-5) was “not sufficient”.

`CN(C)CCOC(c1ccccc1)c1ccccc1` [diphenhydramine] was tested, and the prevention of hypotension (Sprague-Dawley rats [1]; diphenhydramine 4 mg/kg alone 30 min before CHA 1 mg/kg (D30C), n=3-5) was “not sufficient”.
